Measurements as given in patent US11912710B2 (UPPTHERA, INC., priority 2021, dated 2024).

Experiments:
Format in all cases: cell-based
[1] = molecular target: T1, PLK1 (Homo sapiens, UniProt P53350); assay: Luciferase assay for PLK1 in HeLa LgBit (Plk1-HiBit KI) cell line; conditions: 300 nM compound, luminescence after 9 hours, read-out: Activity: ratio of the luminescense value of compound treatment group to DMSO treatment group
T1 construct: endogenous in cells; host or cells: HeLa LgBit (Plk1-HiBit KI): HeLa cells stably expressing LgBit, with HiBit knocked into the endogenous Plk1 locus by CRISPR/Cas9
T1 sequence (P53350 whole entry): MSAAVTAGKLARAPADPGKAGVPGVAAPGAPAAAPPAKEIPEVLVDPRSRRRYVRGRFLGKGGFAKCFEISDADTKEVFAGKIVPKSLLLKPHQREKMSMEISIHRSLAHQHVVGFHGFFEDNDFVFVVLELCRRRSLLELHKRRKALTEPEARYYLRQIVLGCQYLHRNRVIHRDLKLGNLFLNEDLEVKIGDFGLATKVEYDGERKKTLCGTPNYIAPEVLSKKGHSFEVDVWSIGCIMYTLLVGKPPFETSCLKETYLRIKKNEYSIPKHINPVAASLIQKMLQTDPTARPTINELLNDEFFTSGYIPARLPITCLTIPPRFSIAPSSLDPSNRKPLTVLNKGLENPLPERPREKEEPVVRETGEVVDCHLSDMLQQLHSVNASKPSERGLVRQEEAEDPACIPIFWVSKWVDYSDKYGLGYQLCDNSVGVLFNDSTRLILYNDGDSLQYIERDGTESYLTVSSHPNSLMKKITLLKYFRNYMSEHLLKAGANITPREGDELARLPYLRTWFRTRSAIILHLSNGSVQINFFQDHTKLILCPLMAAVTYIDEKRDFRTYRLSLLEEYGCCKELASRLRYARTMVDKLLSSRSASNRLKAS
Outline: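 Luminescence, followed in real time after adding compound at 300 nM and Endurazine substrate, is reported relative to DMSO-treated wells. Cells are a HeLa LgBit line with a Plk1-HiBit knock-in, synchronized by 2 mM thymidine for 24 h, released, and cultured 18 h before treatment.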

[2] = test system: NCI-H526 cell line; assay: Cell viability assay for H526 cell line; conditions: Homo sapiens, NCI-H526, 120 h; H526 cells, 5 days, EZ-Cytox, 3000 nM to 0.46 nM
Outline: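 NCI-H526 cells exposed to compounds for 5 days in a CO2 incubator; viability read as absorbance at 450 nm after 3 min plate shaking; IC50 derived from treatment response.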

[3] = test system: MRC-5 cell line; assay: Cell viability assay (cytotoxicity) for MRC-5 cell line; conditions: Homo sapiens, MRC5, 120 h; MRC-5 normal cell line, 5 days, EZ-Cytox, 10000 nM to 1.52 nM; read-out: Activity: IC50 value to MRC-5 cell line (Exemplary Compounds)
Procedure: 4. Cell Viability Assay for MRC-5 Cell Line
(1) Culture of MRC-5 Cell Line
Passage of cultured cells was maintained within P15.
(2) Treatment of Compounds of the Present Invention
Then, it was cultured in 37° C.
(3) Cytotoxicity Experiment
CO2 incubator for 4 hours.
Cell Viability Assay for MRC-5 cell line

remaining activity at 0.3 µM [1] [%] | Compound | IC50 [2] [µM] | IC50 [3] [µM]
< 30 | COc1cc(C(=O)NN2CCC(CCN3CCN(c4ccc(C5CCC(=O)NC5=O)cc4F)CC3)CC2)ccc1Nc1ncc2c(n1)N(C1CCCC1)CC(F)(F)C(=O)N2C (stereo not drawn) [Compound 12, 4-((9-cyclopentyl-7,7-difluoro-5-methyl-6-oxo-6,7,8,9-tetrahydro-5H-pyrimido[4,5-b][1,4]diazepin-2-yl)amino)-N-(4-(2-(4-(4-(2,6-dioxopiperidin-3-yl)-2-fluorophenyl)piperazin-1-yl)ethyl)piperidin-1-yl)-3-methoxybenzamide] | < 0.03 | 20
< 30 | COc1cc(C(=O)NC2CCN(C(=O)CCCOc3cccc(C4CCC(=O)NC4=O)c3)CC2)ccc1Nc1ncc2c(n1)N(C1CCCC1)CC(F)(F)C(=O)N2C (stereo not drawn) [Compound 4, 4-((9-cyclopentyl-7,7-difluoro-5-methyl-6-oxo-6,7,8,9-tetrahydro-5H-pyrimido[4,5-b][1,4]diazepin-2-yl)amino)-N-(1-(4-(3-(2,6-dioxopiperidin-3-yl)phenoxy)butanoyl)piperidin-4-yl)-3-methoxybenzamide] | < 0.05 | > 10
< 60 | COc1cc(C(=O)NC2CCN(C(=O)CCN3CCN(c4ccnc(C5CCC(=O)NC5=O)c4)CC3)CC2)ccc1Nc1ncc2c(n1)N(C1CCCC1)CC(F)(F)C(=O)N2C (stereo not drawn) [Compound 37, 4-((9-cyclopentyl-7,7-difluoro-5-methyl-6-oxo-6,7,8,9-tetrahydro-5H-pyrimido[4,5-b][1,4]diazepin-2-yl)amino)-N-(1-(3-(4-(2-(2,6-dioxopiperidin-3-yl)pyridin-4-yl)piperazin-1-yl)propanoyl)piperidin-4-yl)-3-methoxybenzamide] | < 0.05 | > 10
< 30 | COc1cc(C(=O)NN2CCC([C@H](C)CN3CCN(c4ccc(C5CCC(=O)NC5=O)cc4F)CC3)CC2)ccc1Nc1ncc2c(n1)N(C1CCCC1)CC(F)(F)C(=O)N2C (stereo partly drawn) [Compound 20, 4-((9-cyclopentyl-7,7-difluoro-5-methyl-6-oxo-6,7,8,9-tetrahydro-5H-pyrimido[4,5-b][1,4]diazepin-2-yl)amino)-N-(4-((2S)-1-(4-(4-(2,6-dioxopiperidin-3-yl)-2-fluorophenyl)piperazin-1-yl)propan-2-yl)piperidin-1-yl)-3-methoxybenzamide] | < 0.05 | > 10
